Experimental data published in patent publication US9247759B2, “Identification of human T2R receptors that respond to bitter compounds that elicit the bitter taste in compositions, and the use thereof in assays to identify compounds that inhibit (block) bitter taste in compositions and use thereof” (SENOMYX, INC., priority 2007, dated 2016).

Tests used:
hT2R3 = hT2R3 (Homo sapiens (Human), UniProt Q9NYW6); assay: hT2R panel inhibition, transient HEK293 G16g44, agonist Chloroquine pH6.5 50 μM; assay type: cell-based; details: receptor activated to EC80 with the corresponding agonist; for inhibition at 25 µM: HEK293, compound at 25 μM, read-out: screening result against bitter receptor 3
Sequence of hT2R3 (Q9NYW6 whole entry): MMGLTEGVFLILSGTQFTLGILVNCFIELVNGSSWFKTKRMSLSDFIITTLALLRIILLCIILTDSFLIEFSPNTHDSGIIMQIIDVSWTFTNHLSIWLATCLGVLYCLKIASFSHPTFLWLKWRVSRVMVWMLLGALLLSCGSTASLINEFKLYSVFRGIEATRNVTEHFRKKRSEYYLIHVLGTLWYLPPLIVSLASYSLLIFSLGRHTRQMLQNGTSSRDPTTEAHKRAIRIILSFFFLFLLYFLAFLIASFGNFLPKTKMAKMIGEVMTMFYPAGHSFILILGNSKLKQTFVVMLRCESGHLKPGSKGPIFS
Method in brief: (§1)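 Transfect one hT2R per well set; stimulate with agonist at EC80; add test compound; record reduction of functional response as inhibition.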

hT2R61 = hT2R61 (Homo sapiens (Human), UniProt P59537); assay: hT2R panel inhibition, transient HEK293 G16g44, agonist Aristolochic Acid 25 nM; assay type: cell-based; details: HEK293, compound at 25 μM; receptor activated to EC80 with the corresponding agonist; read-out: screening result against bitter receptor 61
Sequence of hT2R61 (P59537 whole entry): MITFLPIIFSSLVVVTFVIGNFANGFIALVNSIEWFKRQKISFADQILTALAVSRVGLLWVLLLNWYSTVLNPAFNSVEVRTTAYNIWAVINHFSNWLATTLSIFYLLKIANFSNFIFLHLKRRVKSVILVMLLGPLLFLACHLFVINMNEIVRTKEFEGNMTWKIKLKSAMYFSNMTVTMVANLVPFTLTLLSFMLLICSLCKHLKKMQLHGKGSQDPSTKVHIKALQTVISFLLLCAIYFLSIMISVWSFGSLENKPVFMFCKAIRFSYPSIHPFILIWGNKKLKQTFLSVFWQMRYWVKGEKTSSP
Method in brief: as §1

hT2R8 [1] = target: T1, hT2R8 (Homo sapiens (Human), UniProt Q9NYW2); assay: hT2R panel inhibition, transient HEK293 G16g44, agonist Andrographolide 0.5 mM; assay type: cell-based; details: HEK293, compound at 25 μM; receptor activated to EC80 with the corresponding agonist; read-out: screening result against bitter receptor 8
T1 sequence (Q9NYW2 whole entry): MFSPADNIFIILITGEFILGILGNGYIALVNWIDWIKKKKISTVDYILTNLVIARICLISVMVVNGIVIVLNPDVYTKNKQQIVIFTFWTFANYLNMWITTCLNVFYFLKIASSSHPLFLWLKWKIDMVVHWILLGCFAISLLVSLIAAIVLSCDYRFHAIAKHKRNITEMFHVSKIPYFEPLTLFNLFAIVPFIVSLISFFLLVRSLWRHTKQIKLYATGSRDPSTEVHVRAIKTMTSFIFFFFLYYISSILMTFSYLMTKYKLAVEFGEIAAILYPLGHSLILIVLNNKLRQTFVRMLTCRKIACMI
Method: Specifically, in order to evaluate the inhibitory selectivity of the Compound C compound, this compound was tested against 22 human T2Rs which were deorphaned by Senomyx. These receptors and the bitter ligands that activate these human T2Rs are reported in earlier patent applications which are incorporated by reference herein. These 22 human T2Rs are hT2R1, 3, 4, 5, 7, 8, 9, 10, 13, 14, 16, 44, 51, 54, 55, 61, 63, 64, 65, 67, 71 and 75. The amino acid and nucleic acid sequences of all of these T2Rs may be found in these earlier patent applications. These human T2Rs were each individually transiently transfected into HEK293 cells that stably express the promiscuous G protein G16g44 and functional assays were effected using these receptors as disclosed in these same patent applications. […] The ligands were used at EC80 concentration levels. The list of bitter ligands utilized and the tested ligand concentrations are contained in Table 5 of this example.

hT2R67 = assay: hT2R panel inhibition, transient HEK293 G16g44, agonist Andrographolide 5 μM; assay type: cell-based, human; details: compound at 25 μM; receptor activated to EC80 with the corresponding agonist
Method in brief: as §1

hT2R63 = assay: hT2R panel inhibition, transient HEK293 G16g44, agonist Caffeine 1 mM or Andrographolide 100 μM; assay type: cell-based, human; details: compound at 25 μM; receptor activated to EC80 with the corresponding agonist
Method in brief: as §1

hT2R55 = assay: hT2R panel inhibition, transient HEK293 G16g44, agonist Cinchonine 150 μM; assay type: cell-based, human; details: compound at 25 μM; receptor activated to EC80 with the corresponding agonist
Method in brief: as §1

hT2R7 = hT2R7 (Homo sapiens (Human), UniProt Q9NYW3); assay: hT2R panel inhibition, transient HEK293 G16g44, agonist Chloroquine pH6.5 10 mM; assay type: cell-based; details: HEK293, compound at 25 μM; receptor activated to EC80 with the corresponding agonist; read-out: screening result against bitter receptor 7
Sequence of hT2R7 (Q9NYW3 whole entry): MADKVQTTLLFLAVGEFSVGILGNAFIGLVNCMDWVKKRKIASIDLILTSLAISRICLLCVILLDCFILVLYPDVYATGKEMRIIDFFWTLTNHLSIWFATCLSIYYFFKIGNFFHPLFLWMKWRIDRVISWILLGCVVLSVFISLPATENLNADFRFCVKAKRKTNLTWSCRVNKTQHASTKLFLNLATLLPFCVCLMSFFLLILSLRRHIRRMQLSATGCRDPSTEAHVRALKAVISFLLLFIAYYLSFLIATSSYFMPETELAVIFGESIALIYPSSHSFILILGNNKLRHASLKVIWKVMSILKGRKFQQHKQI
Method in brief: as §1

hT2R71 = hT2R71 (Homo sapiens (Human), UniProt P59536); assay: hT2R panel inhibition, transient HEK293 G16g44, agonist Picric Acid 10 μM; assay type: cell-based; details: receptor activated to EC80 with the corresponding agonist; for inhibition at 25 µM: HEK293, compound at 25 μM, read-out: screening result against bitter receptor 71
Sequence of hT2R71 (P59536 whole entry): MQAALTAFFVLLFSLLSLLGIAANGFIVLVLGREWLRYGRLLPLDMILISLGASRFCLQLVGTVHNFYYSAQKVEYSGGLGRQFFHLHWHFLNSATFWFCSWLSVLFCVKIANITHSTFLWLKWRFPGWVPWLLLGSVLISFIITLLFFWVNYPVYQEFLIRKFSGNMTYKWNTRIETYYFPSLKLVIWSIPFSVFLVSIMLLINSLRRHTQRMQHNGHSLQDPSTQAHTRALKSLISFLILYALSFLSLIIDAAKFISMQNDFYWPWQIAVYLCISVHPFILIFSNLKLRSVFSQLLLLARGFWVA
Method in brief: as §1

hT2R5 = hT2R5 (Homo sapiens (Human), UniProt Q9NYW4); assay: hT2R panel inhibition, transient HEK293 G16g44, agonist Picoline 10 mM; assay type: cell-based; details: HEK293, compound at 25 μM; receptor activated to EC80 with the corresponding agonist; read-out: screening result against bitter receptor 5
Sequence of hT2R5 (Q9NYW4 whole entry): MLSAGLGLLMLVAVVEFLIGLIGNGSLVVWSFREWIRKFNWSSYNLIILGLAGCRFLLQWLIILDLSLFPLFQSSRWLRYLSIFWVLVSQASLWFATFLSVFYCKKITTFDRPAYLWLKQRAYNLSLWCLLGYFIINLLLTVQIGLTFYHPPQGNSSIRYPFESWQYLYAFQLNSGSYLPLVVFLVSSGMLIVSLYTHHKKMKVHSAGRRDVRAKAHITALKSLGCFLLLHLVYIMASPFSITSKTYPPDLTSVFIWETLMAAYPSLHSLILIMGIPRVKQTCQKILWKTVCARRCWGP
Method in brief: as §1

hT2R64 = hT2R64 (Homo sapiens (Human), UniProt P59538); assay: hT2R panel inhibition, transient HEK293 G16g44, agonist Aristolochic Acid 1 μM; assay type: cell-based; details: HEK293, compound at 25 μM; receptor activated to EC80 with the corresponding agonist; read-out: screening result against bitter receptor 64
Sequence of hT2R64 (P59538 whole entry): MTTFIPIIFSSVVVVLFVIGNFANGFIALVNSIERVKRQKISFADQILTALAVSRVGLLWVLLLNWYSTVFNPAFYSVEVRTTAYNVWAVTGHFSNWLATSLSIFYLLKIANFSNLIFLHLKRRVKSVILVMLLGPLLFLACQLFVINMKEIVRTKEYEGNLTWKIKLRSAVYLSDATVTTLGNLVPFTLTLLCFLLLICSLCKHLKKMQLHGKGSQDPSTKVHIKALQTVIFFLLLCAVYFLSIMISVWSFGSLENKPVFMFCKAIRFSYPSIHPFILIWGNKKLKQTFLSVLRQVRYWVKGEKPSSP
Method in brief: as §1

hT2R44 = assay: hT2R panel inhibition, transient HEK293 G16g44, agonist Denatonium 0.5 μM; assay type: cell-based, human; details: compound at 25 μM; receptor activated to EC80 with the corresponding agonist
Method in brief: as §1

hT2R14 [2] = target: T2, hT2R14 (Homo sapiens (Human), UniProt Q9NYV8); assay: hT2R14 antagonist high-throughput FLIPR assay, stable cell line with G16g44, agonist aristolochic acid; assay type: cell-based; details: Table C; read-out: hT2R14 IC50
T2 sequence (Q9NYV8 whole entry): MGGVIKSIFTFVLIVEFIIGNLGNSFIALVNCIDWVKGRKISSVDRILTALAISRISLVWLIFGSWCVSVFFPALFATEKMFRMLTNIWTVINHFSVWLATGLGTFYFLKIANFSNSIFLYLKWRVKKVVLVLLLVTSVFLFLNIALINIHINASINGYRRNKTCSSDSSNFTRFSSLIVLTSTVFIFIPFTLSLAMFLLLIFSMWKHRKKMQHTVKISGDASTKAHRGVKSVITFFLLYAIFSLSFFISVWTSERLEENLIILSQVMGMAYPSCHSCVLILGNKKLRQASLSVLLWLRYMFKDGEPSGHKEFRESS
Method in brief: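 HEK293 cells stably expressing hT2R14 with chimeric G16g44 were stimulated with aristolochic acid (3 μM), giving 70-80% of maximal receptor activity. Test compounds were added together with the agonist, and antagonism was read as fluorescent calcium signal on FLIPR.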

hT2R75 = hT2R75 (Homo sapiens (Human), UniProt P59540); assay: hT2R panel inhibition, transient HEK293 G16g44, agonist Strychnine 1 μM; assay type: cell-based; details: HEK293, read-out: screening result against bitter receptor 75, compound at 25 μM; receptor activated to EC80 with the corresponding agonist
Sequence of hT2R75 (P59540 whole entry): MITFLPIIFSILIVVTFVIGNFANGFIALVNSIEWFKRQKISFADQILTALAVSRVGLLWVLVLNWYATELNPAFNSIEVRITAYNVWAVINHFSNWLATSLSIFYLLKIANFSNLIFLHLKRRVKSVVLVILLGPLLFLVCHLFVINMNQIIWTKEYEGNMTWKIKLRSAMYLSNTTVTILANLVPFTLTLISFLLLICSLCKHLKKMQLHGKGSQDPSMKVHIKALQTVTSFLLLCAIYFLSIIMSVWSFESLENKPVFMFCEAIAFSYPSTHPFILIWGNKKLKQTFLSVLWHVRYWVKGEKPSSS

hT2R10 = hT2R10 (Homo sapiens (Human), UniProt Q9NYW0); assay: hT2R panel inhibition, transient HEK293 G16g44, agonist Strychnine 50 μM; assay type: cell-based; details: receptor activated to EC80 with the corresponding agonist; for inhibition at 25 µM: HEK293, read-out: screening result against bitter receptor 10, compound at 25 μM
Sequence of hT2R10 (Q9NYW0 whole entry): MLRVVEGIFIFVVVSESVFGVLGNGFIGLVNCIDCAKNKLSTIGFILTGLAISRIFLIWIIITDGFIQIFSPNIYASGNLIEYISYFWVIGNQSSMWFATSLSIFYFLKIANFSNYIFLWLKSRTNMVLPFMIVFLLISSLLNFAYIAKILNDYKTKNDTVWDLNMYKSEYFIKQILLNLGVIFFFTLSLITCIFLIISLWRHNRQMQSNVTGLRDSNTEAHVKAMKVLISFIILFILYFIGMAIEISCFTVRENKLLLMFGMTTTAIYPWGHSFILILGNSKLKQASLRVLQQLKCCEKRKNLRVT

hT2R51 = hT2R51 (Homo sapiens (Human), UniProt P59533); assay: hT2R panel inhibition, transient HEK293 G16g44, agonist Prop 2.5 μM; assay type: cell-based; details: receptor activated to EC80 with the corresponding agonist; for inhibition at 25 µM: HEK293, compound at 25 μM, read-out: screening result against bitter receptor 51
Sequence of hT2R51 (P59533 whole entry): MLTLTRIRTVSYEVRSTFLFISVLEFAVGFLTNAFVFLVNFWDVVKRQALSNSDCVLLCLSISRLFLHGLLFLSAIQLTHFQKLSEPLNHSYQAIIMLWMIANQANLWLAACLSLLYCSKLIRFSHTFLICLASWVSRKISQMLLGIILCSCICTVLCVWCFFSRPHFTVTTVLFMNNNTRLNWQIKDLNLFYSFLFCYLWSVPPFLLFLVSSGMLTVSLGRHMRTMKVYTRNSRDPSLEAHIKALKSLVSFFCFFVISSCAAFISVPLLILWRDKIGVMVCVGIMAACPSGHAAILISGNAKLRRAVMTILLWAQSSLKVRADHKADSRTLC
Method in brief: as §1

hT2R14 [3] = target: T2, hT2R14; assay: hT2R panel inhibition, transient HEK293 G16g44, agonist Aristolochic Acid 2 μM; assay type: cell-based; details: HEK293, compound at 25 μM; receptor activated to EC80 with the corresponding agonist; read-out: screening result against bitter receptor 14
Method in brief: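 Each hT2R was transiently transfected into HEK293 cells stably expressing G16g44 and assayed functionally for inhibition of agonist response. Agonists were applied at EC80: andrographolide at 0.5 mM for hT2R8 and aristolochic acid at 2 μM for hT2R14.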

hT2R65 = assay: hT2R panel inhibition, transient HEK293 G16g44, agonist Oleuropein 1 mM; assay type: cell-based, human; details: compound at 25 μM; receptor activated to EC80 with the corresponding agonist
Method in brief: as §1

hT2R16 = hT2R16 (Homo sapiens (Human), UniProt Q9NYV7); assay: hT2R panel inhibition, transient HEK293 G16g44, agonist Salicin 1 mM; assay type: cell-based; details: HEK293, compound at 25 μM; receptor activated to EC80 with the corresponding agonist; read-out: screening result against bitter receptor 16
Sequence of hT2R16 (Q9NYV7 whole entry): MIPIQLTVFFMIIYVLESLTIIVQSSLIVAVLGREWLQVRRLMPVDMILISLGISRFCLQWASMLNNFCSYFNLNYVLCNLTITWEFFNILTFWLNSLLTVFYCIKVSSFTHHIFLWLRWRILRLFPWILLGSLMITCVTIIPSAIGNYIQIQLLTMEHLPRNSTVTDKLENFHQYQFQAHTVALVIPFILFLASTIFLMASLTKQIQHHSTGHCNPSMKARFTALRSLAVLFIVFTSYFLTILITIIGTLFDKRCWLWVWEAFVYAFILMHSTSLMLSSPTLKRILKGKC
Method in brief: as §1

hT2R54 = assay: hT2R panel inhibition, transient HEK293 G16g44, agonist Ranitidine 5 mM; assay type: cell-based, human; details: compound at 25 μM; receptor activated to EC80 with the corresponding agonist
Method in brief: as §1

hT2R8 [4] = target: T1, hT2R8; assay: hT2R8 antagonist high-throughput FLIPR assay, stable cell line with G16g44, agonist andrographolide; assay type: cell-based; details: read-out: IC50 on hT2R8 bitter receptor
Method in brief: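 HEK293 cells stably co-expressing hT2R8 and chimeric G16g44, read on FLIPR. Test compounds added together with andrographolide (200 μM), which drives the receptor to 70–80% of maximal activity; antagonism seen as reduced agonist response.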

[5] = tested on: bitter taste of instant coffee; assay: 2-alternative forced choice taste test, instant coffee with hT2R8 antagonists; assay type: in vivo, human; details: antagonist 5 μM
Method: Taste tests were performed with hT2R8 antagonists in instant coffee using a 2-alternative forced choice method with a taste panel of 15-20 panelists. Coffee samples with the antagonists were given to the taste panelists together with the same sample without antagonists, the panelists were asked to identify the bitterer sample within the pair.

SMILES	inhibition at 25 µM (hT2R3) [%]	inhibition at 25 µM (hT2R61) [%]	inhibition at 25 µM (hT2R8 [1]) [%]	screening result against bitter receptor 67 (hT2R67)	screening result against bitter receptor 63 (hT2R63)	screening result against bitter receptor 55 (hT2R55)	inhibition at 25 µM (hT2R7) [%]	inhibition at 25 µM (hT2R71) [%]	inhibition at 25 µM (hT2R5) [%]	inhibition at 25 µM (hT2R64) [%]	screening result against bitter receptor 44 (hT2R44)	inhibition at 25 µM (hT2R14 [3]) [%]	IC50 (hT2R8 [4]) [nM]	Selected as bitterer: With antagonists [5]	Selected as bitterer: Without antagonists [5]	also measured
COc1ccc(CN(Cc2ccsc2)S(=O)(=O)c2ccc(C(=O)O)cc2)cc1 [Example 5-62, 4-(N-(4-methoxybenzyl)-N-(thiophen-3-ylmethyl)sulfamoyl)benzoic acid]	20 to 40	40 to 60	20 to 40	+ (20% to 40% inhibition = +)	++++ (80% or greater inhibition = ++++)	+++ (60% to 80% inhibition = +++)	20 to 40	20 to 40	20 to 40	40 to 60						
COc1ccc(CN(Cc2ccc(F)cc2)S(=O)(=O)c2ccc(C(=O)O)cc2)cc1 [Example 5-69, 4-(N-(4-fluorobenzyl)-N-(4-methoxybenzyl)sulfamoyl)benzoic acid]		60 to 80	20 to 40		++++ (80% or greater inhibition = ++++)	+++ (60% to 80% inhibition = +++)			20 to 40	40 to 60	+ (20% to 40% inhibition = +)	> 80				screening result against bitter receptor 3 (hT2R3; compound at 25 μM): + (20% to 40% inhibition = +); IC50 (hT2R14 [2]): 8280 nM; inhibition at 25 µM (hT2R75): 20 to 40%; screening result against bitter receptor 71 (hT2R71; compound at 25 μM): + (20% to 40% inhibition = +); screening result against bitter receptor 10 (hT2R10; compound at 25 μM): + (20% to 40% inhibition = +); screening result against bitter receptor 51 (hT2R51; compound at 25 μM): ++ (40% to 60% inhibition = ++)
Cc1ccc(CN(Cc2ccccc2)S(=O)(=O)c2ccc(C(=O)O)cc2)cc1 [Example 5-70, 4-(N-benzyl-N-(4-methylbenzyl)sulfamoyl)benzoic acid]	40 to 60	40 to 60	20 to 40	+ (20% to 40% inhibition = +)	++++ (80% or greater inhibition = ++++)	+++ (60% to 80% inhibition = +++)	20 to 40	40 to 60	40 to 60	20 to 40	+ (20% to 40% inhibition = +)	60 to 80				screening result against bitter receptor 65 (hT2R65): ++ (40% to 60% inhibition = ++); inhibition at 25 µM (hT2R75): 20 to 40%; inhibition at 25 µM (hT2R10): 40 to 60%; inhibition at 25 µM (hT2R16): 40 to 60%; inhibition at 25 µM (hT2R51): 40 to 60%; screening result against bitter receptor 54 (hT2R54): ++ (40% to 60% inhibition = ++)
O=C(O)c1ccc(S(=O)(=O)N(Cc2ccccc2)Cc2ccc(Cl)cc2)cc1 [Example 5-77, 4-(N-benzyl-N-(4-chlorobenzyl)sulfamoyl)benzoic acid]	40 to 60	60 to 80	20 to 40	+ (20% to 40% inhibition = +)	+++ (60% to 80% inhibition = +++)	++ (40% to 60% inhibition = ++)	20 to 40	40 to 60	20 to 40	40 to 60	+ (20% to 40% inhibition = +)	> 80				screening result against bitter receptor 65 (hT2R65): ++ (40% to 60% inhibition = ++); inhibition at 25 µM (hT2R10): 20 to 40%; inhibition at 25 µM (hT2R16): 20 to 40%; inhibition at 25 µM (hT2R51): 40 to 60%; screening result against bitter receptor 54 (hT2R54): ++ (40% to 60% inhibition = ++)
Cc1noc(C)c1Cn1cc(N2C(=O)N(Cc3cccc(O)c3)C(C)(C)C2=O)cn1 [Example 12-1, 3-(1-((3,5-dimethylisoxazol-4-yl)methyl)-1H-pyrazol-4-yl)-1-(3-hydroxybenzyl)-5,5-dimethylimidazolidine-2,4-dione]													50	2	14	
COc1ccc(CN2C(=O)N(c3cnn(Cc4c(C)noc4C)c3)C(=O)C2(C)C)cc1O [Example 12-2, 3-(1-((3,5-dimethylisoxazol-4-yl)methyl)-1H-pyrazol-4-yl)-1-(3-hydroxy-4-methoxybenzyl)-5,5-dimethylimidazolidine-2,4-dione]													60	2	14	
COc1cc(O)cc(CN2C(=O)N(c3cnn(Cc4c(C)noc4C)c3)C(=O)C2(C)C)c1 [Example 12-17, 3-(1-((3,5-dimethylisoxazol-4-yl)methyl)-1H-pyrazol-4-yl)-1-(3-hydroxy-5-methoxybenzyl)-5,5-dimethylimidazolidine-2,4-dione]													20	3	17	melting point: 72 to 74 °C
Cc1noc(C)c1Cn1cc(N2C(=O)N(Cc3cccc(CO)c3)C(C)(C)C2=O)cn1 [Example 12-34, 3-(1-((3,5-dimethylisoxazol-4-yl)methyl)-1H-pyrazol-4-yl)-1-(3-(hydroxymethyl)benzyl)-5,5-dimethylimidazolidine-2,4-dione]													110	3	13	
